Data from patent US6525022B1, “Receptor specific atrial natriuretic peptides” (Genentech, Inc., priority 1993, dated 2003).
Where two headings read alike, the source gives them in different places. Where a SMILES comes first, the peptide text is derived from it. Bridges are numbered along the chain shown (N, C = ends).

Legend:
[1] = biological target: T1, human natriuretic peptide receptor-A expressed in 293 cells (Homo sapiens, UniProt P16066); test: cGMP production in 293 cells expressing hNPR-A; type: cell-based
T1 construct: expressed in transfected cells
T1 sequence (P16066 33-1061): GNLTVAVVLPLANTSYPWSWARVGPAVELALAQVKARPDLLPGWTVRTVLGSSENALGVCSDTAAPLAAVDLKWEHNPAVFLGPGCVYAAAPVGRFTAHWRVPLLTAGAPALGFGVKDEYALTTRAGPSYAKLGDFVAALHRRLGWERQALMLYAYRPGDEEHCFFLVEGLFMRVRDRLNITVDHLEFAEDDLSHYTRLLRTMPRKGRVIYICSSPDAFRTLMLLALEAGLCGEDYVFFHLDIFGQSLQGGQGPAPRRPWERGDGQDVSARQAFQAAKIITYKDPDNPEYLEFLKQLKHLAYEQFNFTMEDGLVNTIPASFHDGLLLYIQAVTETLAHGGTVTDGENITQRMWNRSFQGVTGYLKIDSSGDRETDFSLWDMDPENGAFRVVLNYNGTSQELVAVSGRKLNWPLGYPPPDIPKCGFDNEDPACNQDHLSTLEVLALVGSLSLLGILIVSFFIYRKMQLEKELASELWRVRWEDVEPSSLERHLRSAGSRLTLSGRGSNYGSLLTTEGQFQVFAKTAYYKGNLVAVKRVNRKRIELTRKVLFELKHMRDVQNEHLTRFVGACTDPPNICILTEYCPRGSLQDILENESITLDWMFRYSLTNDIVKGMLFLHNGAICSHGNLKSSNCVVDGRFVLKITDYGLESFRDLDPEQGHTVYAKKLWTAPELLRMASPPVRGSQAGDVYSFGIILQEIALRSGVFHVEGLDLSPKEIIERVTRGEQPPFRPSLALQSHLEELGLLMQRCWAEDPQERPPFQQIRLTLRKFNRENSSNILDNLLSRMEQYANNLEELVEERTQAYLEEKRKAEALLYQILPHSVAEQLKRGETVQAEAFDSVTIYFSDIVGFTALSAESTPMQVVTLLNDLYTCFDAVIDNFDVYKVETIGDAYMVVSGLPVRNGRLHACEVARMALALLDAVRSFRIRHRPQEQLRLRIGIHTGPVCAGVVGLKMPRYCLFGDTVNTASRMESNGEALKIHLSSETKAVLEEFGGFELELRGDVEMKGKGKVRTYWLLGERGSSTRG
Method: Stable 293 cell lines were maintained in glycine free F-12/Dulbecco's minimal essential medium (50/50, v/v) with 10% dialyzed fetal calf serum, 10 mM Hepes, […] of G418 (Geneticin, GIBCO/BRL), pH 7.2, in a humidified incubator at 37° C. with 7% CO2, 93% air. Cells were passaged using 136.8 mM NaCL, 2.6 mM KCl, 7.9 mM Na2HPO4, 1.4 mM KH2PO4, pH 7.2 (PBS) with 0.5 mM EDTA. For concentration-response experiments log phase cultures of 293 cell lines were passaged to 12 well plates at a density of 2.5×10^5 cells/well. After 48 hours cultures were approximately 50% confluent, and were used for stimulation of cGMP production. Peptide treatments were carried out essentially as described by Lowe and Fendly (1992). Briefly, dried peptide aliquots were resuspended in 0.1% (v/v) acetic acid to a stock concentration of 50 μM, and diluted to 1 μM in F-12/Dulbecco's minimal essential medium (50/50, v/v) with 25 mM Hepes, 0.1% (w/v) bovine serum albumin, 0.1 mM isobutylmethylxanthine at pH 7.2 (stimulation medium). Five-fold serial dilutions were prepared in stimulation medium using polypropylene tubes, then prewarmed to 37° C. before use. Cell culture medium was aspirated prior to adding 0.5 ml of stimulation medium plus peptides to monolayer cultures for 10 minutes at 37° C. Reactions were stopped by addition of 0.5 ml of ice cold 12% trichloroacetic acid to give a final volume of 1 ml. Culture plates were frozen on dry ice and stored at −20° C. prior to assay. For cGMP measurements samples were thawed at room temperature, and processed as described by Koller et al., Science 252:120-123 (1991), for cGMP radioimmunoassay (Biomedical Technologies, Inc). All stimulations were performed in triplicate, and samples were measured in duplicate for cGMP by radioimmumoassay. Predicted peptide concentrations were corrected based on quantitative amino acid analysis of duplicate samples from the same set of peptide aliquots used for the stimulation experiments.
Data analysis. The competition binding curves and cGMP production dose responses were analyzed by the four-parameter logistic equation with the KaleidaGraph™ program (Synergy Software, PA) to obtain estimates of the IC50 or EC50 values. The non linear least-squares curve fitting program SCATPLOT was used to analyze the competition binding curves according to a one-site or two-site binding model for competitor. A two-site binding model is reported when the fit to the data was statistically better (p<0.05) than a one-site fit.

[2] = biological target: human NEP (hNEP), endopeptidase 24.11 (Homo sapiens, UniProt P08473); test: Degradation of ANF variants by human NEP, half-life by HPLC
human NEP (hNEP), endopeptidase 24.11, sequence (P08473 whole entry): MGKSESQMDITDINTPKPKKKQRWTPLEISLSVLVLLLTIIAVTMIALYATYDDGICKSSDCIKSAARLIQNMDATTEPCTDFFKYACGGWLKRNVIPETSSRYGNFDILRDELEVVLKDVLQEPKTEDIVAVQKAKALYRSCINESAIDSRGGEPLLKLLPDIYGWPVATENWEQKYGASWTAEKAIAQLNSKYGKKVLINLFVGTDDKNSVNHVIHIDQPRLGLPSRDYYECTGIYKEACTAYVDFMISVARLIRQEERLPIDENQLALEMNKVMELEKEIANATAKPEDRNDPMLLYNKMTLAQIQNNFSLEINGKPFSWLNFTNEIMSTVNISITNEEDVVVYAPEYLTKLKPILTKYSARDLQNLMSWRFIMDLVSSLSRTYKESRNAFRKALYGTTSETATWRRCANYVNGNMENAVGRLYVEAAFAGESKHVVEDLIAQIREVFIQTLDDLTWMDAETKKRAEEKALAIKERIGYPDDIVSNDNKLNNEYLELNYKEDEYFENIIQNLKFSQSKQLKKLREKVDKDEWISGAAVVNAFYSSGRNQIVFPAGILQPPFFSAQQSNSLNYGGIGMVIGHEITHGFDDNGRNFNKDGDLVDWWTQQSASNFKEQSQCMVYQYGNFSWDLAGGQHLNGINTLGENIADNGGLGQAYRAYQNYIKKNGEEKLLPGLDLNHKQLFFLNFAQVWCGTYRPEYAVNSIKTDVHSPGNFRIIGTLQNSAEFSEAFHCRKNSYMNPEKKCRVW
Method: The half-life of various ANF variants was measured according to the following procedure.
ANF Solution: An accurately weighed amount of ANF or variant thereof was diluted with HEPES buffer (5 ml of 1 M HEPES Buffer and 0.1 ml of Tween 20 diluted to a 100 ml volume with DI water) to make a 0.5 mg/ml solution.
hNEP/HEPES Solution: 7.5 μl of a 1 mg/ml solution of hNEP (see U.S. Pat. No. 4,960,700) is dissolved in 992.5 μl of HEPES buffer (as described above) and vortex mixed. The resulting mixture is stored in a silylated Eppendorf tube and periodically checked for activity against an ANF peptide standard.
Assay conditions: 150 μl of an ANF solution in the HEPES buffer is diluted with 820 μl HEPES buffer and vortex mixed (1 sec). Careful note of the time is taken as 30 μl of the hNEP/HEPES solution is added and the solution is vortex mixed for 1 sec. and analyzed by periodic removal of constant volume aliquots by the HPLC autosampler. A 2.5 cm×50 cm, C-18 reversed-phase column (15 micron, 300 Å]) was used and elution was achieved by using a shallow gradient of increasing acetonitrile. The elution conditions consisted of a 10% to 50% acetonitrile (containing 0.1% TFA) gradient at 0.5% min.^−1. The aqueous phase was 0.1% TFA in water. The peak area of the ANP peptide is recorded at these periodic intervals and a half-life is determined from these values.

[3] = isolated human NEP (endopeptidase 24.11) in HEPES buffer, Half-Life (min.), FIG. 7: ANF variants 32 nM/ml, NEP 0.45 μg/ml

SMILES	Potency in cGMP production compared with rat ANP [1]	Stimulation of cGMP production (agonist efficacy) [1]	half-life at 32 nM/ml [2, 3] [h]	half-life at 32 nM/ml [2] [h]
CC[C@H](C)[C@@H]1NC(=O)[C@H](CCCNC(=N)N)NC(=O)[C@H](CC(=O)O)NC(=O)[C@H]([C@@H](C)CC)NC(=O)[C@H](CO)NC(=O)CNC(=O)[C@H]([C@@H](C)O)NC(=O)[C@H](Cc2ccccc2)NC[C@@H](NC(=O)[C@H](CO)NC(=O)[C@H](CO)NC(=O)[C@H](CCCNC(=N)N)NC(=O)[C@H](CCCNC(=N)N)NC(=O)[C@H](CC(C)C)NC(=O)[C@@H](N)CO)CSSC[C@@H](C(=O)N[C@@H](CC(N)=O)C(=O)N[C@@H](CO)C(=O)N[C@@H](Cc2ccccc2)C(=O)N[C@@H](CCCNC(=N)N)C(=O)N[C@@H](Cc2ccc(O)cc2)C(=O)O)NC(=O)CNC(=O)[C@H](CC(C)C)NC(=O)CNC(=O)[C@H](CO)NC(=O)[C@H](CCC(N)=O)NC(=O)[C@H](C)NC(=O)[C@H](CCCNC(=N)N)NC1=O [ANF 84]	potency very similar to rat ANP	full agonists	39.9	–
CC[C@H](C)[C@@H]1NC(=O)[C@H](CCCNC(=N)N)NC(=O)[C@H](CC(=O)O)NC(=O)[C@H]([C@@H](C)CC)NC(=O)[C@H](CO)NC(=O)CNC(=O)[C@H]([C@@H](C)O)NC(=O)[C@H](Cc2ccccc2)NC(=O)[C@@H](NC(=O)[C@H](CO)NC(=O)[C@H](CO)NC(=O)[C@H](CCCNC(=N)N)NC(=O)[C@H](CCCNC(=N)N)NC(=O)[C@H](CC(C)C)NC(=O)[C@H](CO)NC(=O)[C@H](CCCNC(=N)N)NC(=O)[C@@H]2CCCN2C(=O)[C@H](C)NC(=O)[C@@H](N)[C@@H](C)O)CSSC[C@@H](C(=O)N[C@@H](CC(N)=O)C(=O)N[C@@H](CO)C(=O)N[C@@H](Cc2ccccc2)C(=O)N[C@@H](CCCNC(=N)N)C(=O)N[C@@H](Cc2ccc(O)cc2)C(=O)O)NC(=O)CNC(=O)[C@H](CC(C)C)NC(=O)CNC(=O)[C@H](CO)NC(=O)[C@H](CCC(N)=O)NC(=O)[C@H](C)NC(=O)[C@H](CCCNC(=N)N)NC1=O [ANF 76] (H-TAPRSLRRSSCFTGSIDRIRAQSGLGCNSFRY-OH; disulfide 11-27; C-terminus assumed)	potency very similar to rat ANP	full agonists	–	23.5
CC[C@H](C)[C@@H]1NC(=O)[C@H](CCCNC(=N)N)NC(=O)[C@H](CC(=O)O)NC(=O)[C@H]([C@@H](C)CC)NC(=O)[C@H](CO)NC(=O)CNC(=O)[C@H]([C@@H](C)O)NC(=O)[C@H](Cc2ccccc2)NC(=O)[C@@H](NC(=O)[C@H](CO)NC(=O)[C@H](CO)NC(=O)[C@H](CCCNC(=N)N)NC(=O)[C@H](CCCNC(=N)N)NC(=O)[C@H](CC(C)C)NC(=O)[C@@H](N)CO)CSSC[C@@H](C(=O)N[C@@H](CC(N)=O)C(=O)N[C@@H](CO)C(=O)N[C@@H](Cc2ccccc2)C(=O)N[C@@H](CCCNC(=N)N)C(=O)N[C@@H](Cc2ccc(O)cc2)C(=O)O)NC(=O)CNC(=O)[C@H](CC(C)C)NC(=O)CNC(=O)[C@H](CO)NC(=O)[C@H](CCC(N)=O)NC(=O)[C@H](C)NC(=O)[C@H](CCCNC(=N)N)NC1=O [ANF 27]	potency very similar to rat ANP	full agonists	5.57	–
